One data set concerns the target dopamine D2 receptor (Homo sapiens, UniProt P14416).
The target in data set [1] is serotonin 2A (5HT2A) receptor (Homo sapiens, UniProt P28223).
Excerpt: The ability of the novel compounds of this invention to bind to the dopamine D2 and serotonin 2A (5HT2A) receptors can be determined using conventional radioligand receptor binding assays. All receptors can be heterologously expressed in cell lines and experiments conducted in membrane preparations from the cell lines using procedures outlined below. IC50 concentrations can be determined by nonlinear regression of concentration-dependent reduction in specific binding. The Cheng-Prussoff equation can be used to convert the IC50 to Ki concentrations.
[^3H]Ketanserin binding to Swiss-h5HT2A cell membranes can be carried out in 250 μl of 50 mM Tris-HCl buffer pH 7.4. Duplicate samples containing (in order of addition) test compounds, 1.0 nM [^3H]ketanserin, and approximately 75 μg protein are incubated for 120 minutes at room temperature. Bound radioligand is separated by rapid filtration under reduced pressure through Whatman GF/B glass fiber filters previously treated with 0.3% polyethyleneimine. Radioactivity retained on the filter is determined by liquid scintillation spectrophotometry.

Ki and melting point data for seven compounds are collected here from patent US20040138230A1, “Heterocyclic substituted piperazines for the treatment of schizophrenia” (priority 2002, published 2004).

pKi: −log10 of the molar value.

Sequence of dopamine D2 receptor (P14416 whole entry): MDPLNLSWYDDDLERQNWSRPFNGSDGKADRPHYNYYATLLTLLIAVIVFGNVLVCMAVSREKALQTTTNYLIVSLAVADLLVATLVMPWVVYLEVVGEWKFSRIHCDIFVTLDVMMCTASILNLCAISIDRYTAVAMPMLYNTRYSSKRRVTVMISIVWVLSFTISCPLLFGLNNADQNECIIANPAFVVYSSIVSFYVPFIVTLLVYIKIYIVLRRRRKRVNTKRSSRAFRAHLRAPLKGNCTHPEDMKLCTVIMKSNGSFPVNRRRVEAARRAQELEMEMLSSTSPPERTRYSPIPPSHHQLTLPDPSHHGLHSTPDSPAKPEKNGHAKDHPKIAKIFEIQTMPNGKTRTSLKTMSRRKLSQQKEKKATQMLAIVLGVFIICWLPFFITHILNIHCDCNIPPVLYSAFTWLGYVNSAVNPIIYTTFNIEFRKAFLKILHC
Sequence of serotonin 2A (5HT2A) receptor (P28223 whole entry): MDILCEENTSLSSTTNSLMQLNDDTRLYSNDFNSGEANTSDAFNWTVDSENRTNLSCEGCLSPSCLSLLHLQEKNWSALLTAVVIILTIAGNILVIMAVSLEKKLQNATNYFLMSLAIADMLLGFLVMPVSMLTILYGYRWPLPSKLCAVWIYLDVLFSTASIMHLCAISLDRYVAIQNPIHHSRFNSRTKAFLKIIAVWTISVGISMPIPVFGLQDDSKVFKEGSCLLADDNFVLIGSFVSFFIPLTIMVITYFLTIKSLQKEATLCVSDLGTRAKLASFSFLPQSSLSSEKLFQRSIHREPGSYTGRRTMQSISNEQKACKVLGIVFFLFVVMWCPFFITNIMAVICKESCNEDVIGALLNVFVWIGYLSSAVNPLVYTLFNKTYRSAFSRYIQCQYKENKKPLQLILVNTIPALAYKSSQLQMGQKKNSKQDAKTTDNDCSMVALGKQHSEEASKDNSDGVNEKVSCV

Broadly, the pKi is −log10 of the Ki, conventionally taken in molar units. Consider `Cc1c(Cl)c(CCN2CCN(c3nsc4ccccc34)CC2)cc2c1NC(=O)CC2(C)C` [Example 23, 6-[2-(4-BENZO[D]ISOTHIAZOL-3-YL-PIPERAZIN-1-YL)-ETHYL]-7-CHLORO-4,4,8-TRIMETHYL-3,4-DIHYDRO-1H-QUINOLIN-2-ONE METHANESULFONATE], for which the results for the negative logarithm of the Ki (pKi) (on dopamine D2 receptor; in data set [1]) were 9.05 and 9.00, respectively.
Broadly, the melting point is the temperature of the solid-liquid transition. `CC1Cc2cc(CCCN3CCN(c4nsc5ccccc45)CC3)ccc2NC1=O` (stereo not shown) [Example 59, 6-[3-(4-BENZO[D]ISOTHIAZOL-3-YL-PIPERAZIN-1-YL)-PROPYL]-3-METHYL-3,4-DIHYDRO-1H-QUINOLIN-2-ONE]: the melting point is 212 °C.
The same measure, in the same setting: as for `CN1Cc2c(c3cc(CCCN4CCN(c5nsc6ccccc56)CC4)ccc3[nH]c2=O)C1` [Example 172, 8-[3-(4-BENZO[D]ISOTHIAZOL-3-YL-PIPERAZIN-1-YL)-PROPYL]-2-METHYL-1,2,3,5-TETRAHYDRO-PYRROLO[3,4-C]QUINOLIN-4-ONE], the figure is 206 to 208 °C.
On the same count and under the same terms, then `CN1Cc2c(c3cc(CCN4CCN(c5nsc6ccccc56)CC4)ccc3[nH]c2=O)C1` [Example 173, 8-[2-(4-BENZO[D]ISOTHIAZOL-3-YL-PIPERAZIN-1-YL)-ETHYL]-2-METHYL-1,2,3,5-TETRAHYDRO-PYRROLO[3,4-C]QUINOLIN-4-ONE], with 205 to 207 °C.
For the compound `CC1(C)Cc2cc(CCN3CCN(c4noc5ccccc45)CC3)ccc2NC1=O` [Example 8, 6-[2-(4-BENZO[D]ISOXAZOL-3-YL-PIPERAZIN-1-YL)-ETHYL]-3,3-DIMETHYL-3,4-DIHYDRO-1H-QUINOLIN-2-ONE], the pKi at dopamine D2 receptor was 8.15; in data set [1], 8.30.
Turning to `COc1cccc2c(N3CCN(CCc4cc(C)c5c(c4)C(C)(C)CC(=O)N5)CC3)nsc12` [Example 31, 6-{2-[4-(7-METHOXY-BENZO[D]ISOTHIAZOL-3-YL)-PIPERAZIN-1-YL]-ETHYL}-4,4,8-TRIMETHYL-3,4-DIHYDRO-1H-QUINOLIN-2-ONE], the pKi was 9.00 on dopamine D2 receptor and 8.70 in data set [1].
The compound `CC1Cc2cc(CCCN3CCN(c4noc5ccccc45)CC3)ccc2NC1=O` (stereo not shown) [Example 60, 6-[3-(4-BENZO[D]ISOXAZOL-3-YL-PIPERAZIN-1-YL)-PROPYL]-3-METHYL-3,4-DIHYDRO-1H-QUINOLIN-2-ONE] gave a melting point of 185 to 187 °C.
